Test results reported in article PMC5007466, “VCP recruitment to mitochondria causes mitophagy impairment and neurodegeneration in models of Huntington's disease” (Nature Communications, 2016).

Legend:
[1] = test system: wt mice (R6/2 littermates); assay: Motor ability, body weight, life span of wt littermates; format: in vivo, mouse; conditions: 3 mg kg^−1 per day, 5–13 weeks of age
Procedure: Male hemizygous R6/2 mice (Tg) and their age-matched wt littermates (5-week-old) were implanted with a 28-day osmotic pump (Alzet, Cupertino CA) containing TAT control peptide or HV-3 peptide, which delivered peptides to the mice at a rate of 3 mg kg^−1 per day. The first pump was implanted subcutaneously in the back of 5-week-old mice between the shoulders and replaced once, after 4 weeks.
Gross locomotor activity was assessed in R6/2 mice and age-matched wt littermates at the ages of 13 weeks and in YAC128 mice and age-matched wt littermates at the ages of 2, 3, 6, 9, and 12 months. In an activity chamber (Omnitech Electronics, Inc), mice were placed in the center of the chamber and allowed to explore while being tracked by an automated beam system (Vertax, Omnitech Electronics Inc). Distance moved, horizontal, vertical, and rearing activities were recorded. Because R6/2 mice were sensitive to changes in environment and handling, we only conducted one-hour locomotor activity analysis for R6/2 mice and wt littermates. We performed 24 h of locomotor activity analysis for YAC128 mice and their wt littermates.
The body weight and survival rate of HD mice and wt littermates were recorded throughout the study period.

HdhQ7 striatal cells = assay: Total GFP-LC3B protein level; format: cell-based, mouse; conditions: Flag-VCP + GFP-LC3B, 36 h
Procedure: Protein concentrations were determined by Bradford assay. Protein was resuspended in Laemmli buffer, loaded on SDS–PAGE, and transferred onto nitrocellulose membranes. Membranes were probed with the indicated antibodies, followed by visualization with ECL. Representative blots have been cropped for presentation. Images of full-size blots are presented in Supplementary Fig. 9. […]
mouse striatal cells were treated with thapsigargin (1μM) or tunicamycin (10μ g/ml) for 16 hours i n the presence or absence of HV -3 (3 µM). GRP78 total protein levels were determined by western blot analysis. Representative blots of three independent experiments are shown. Actin was used here as a loading control. (b) Tw e n t y -four hours of serum starvation was performed in HD mouse striatal cells.
Caspase-3 activity analysis was performed in the indicated groups. Data are mean ± SEM of three independent experiments. (c) Flag-VCP and GFP-LC3B were co-transfected into HdhQ7 striatal cells.
Total lysates were isolated after 36 hours of transfection. The GFP -LC3B levels were examined by western blot analysis. Actin was used as a loading control. Histogram: quantitation of GFP-LC3B total protein level. Data are mean ± SEM of three independent experiments.
(1 picture or pasted object on this page, not shown here)

VCP/mtHtt interaction = molecular target: T1, VCP/mtHtt interaction (Homo sapiens, UniProt P55072); assay: Co-immunoprecipitation of GFP-VCP and Myc-73Q FL (mtHtt) in HEK293 cells; format: cell-based; conditions: HEK293, Myc-73Q FL + GFP-VCP, 48 h
T1 construct: The full-length VCP wt and GFP-LC3B plasmids were obtained from Addgene; expressed in transfected cells; host or cells: HEK293
Procedure: (b) Stick drawings of VCP and Htt main domains. […] Immunoprecipitates were analysed by WB with the indicated antibodies. […] VCP mitochondrial levels were determined by WB. Loading control: VDAC. Data are mean±s.e.m. (g–i) ANOVA with Holm-Sidak post hoc test.
Myc-tagged full-length Htt with 23Q or 73Q plasmid was obtained from the CHDI foundation. The full-length VCP wt and GFP-LC3B plasmids were obtained from Addgene. To construct the mitochondria-targeting VCP plasmid, CMV-mito-GEM-GECO1 was digested with BamHI and HindIII, and VCP was PCR-amplified and inserted into the plasmid backbone. Site mutation of the VCP plasmid was performed using a site-mutagenesis kit (Agilent Technologies, Inc.). Cells were transfected with TransIT-2020 (Mirus Bio, LLC) following the manufacturer's protocol.
Human cervix carcinoma cells (HeLa cells) and HEK293 cells were maintained in DMEM supplemented with 10% FBS and 1% (v/v) penicillin/streptomycin.
Supplementary Figure 4: Rational design of a peptide inhibitor to block VCP/Htt interaction. […] Quantitation of VCP/Htt binding was shown below the blot as the m ean of three independent experiments. […] The blots of the bindings of mtHtt/VCP were quantitated with NIH Image J software. The IC50 was calculated. […]

YAC128 mice = assay: DARPP-32 protein level in YAC128 striatal extracts; format: in vivo, mouse; conditions: 3 mg/kg/day, n=6
Procedure: YAC128 mice (Tg) and their age-matched wt littermates were implanted with an osmotic pump containing TAT control peptide or HV-3 peptide (3 mg/kg/day, each) starting from the age of 3 months. The pump was replaced once every month. By the age of 12 months, the treatments were terminated and the mouse samples were harvested for analysis.
Protein concentrations were determined by Bradford assay. Protein was resuspended in Laemmli buffer, loaded on SDS–PAGE, and transferred onto nitrocellulose membranes. Membranes were probed with the indicated antibodies, followed by visualization with ECL. Representative blots have been cropped for presentation. Images of full-size blots are presented in Supplementary Fig. 9.

## CSCC[C@H](NC(=O)[C@@H](NC(=O)[C@H](CC(C)C)NC(=O)[C@@H](NC(=O)[C@H](Cc1c[nH]cn1)NC(=O)CCCCCNC(=O)[C@H](CCCNC(=N)N)NC(=O)[C@H](CCCNC(=N)N)NC(=O)[C@H](CCCNC(=N)N)NC(=O)[C@H](CCC(N)=O)NC(=O)[C@H](CCCNC(=N)N)NC(=O)[C@H](CCCNC(=N)N)NC(=O)[C@H](CCCCN)NC(=O)[C@H](CCCCN)NC(=O)[C@H](CCCNC(=N)N)NC(=O)CNC(=O)[C@@H](N)Cc1ccc(O)cc1)C(C)C)C(C)C)C(=O)N[C@@H](CS)C(=O)N[C@@H](C)C(=O)N[C@H](C(N)=O)[C@@H](C)O [HV-3]
[1]
  motor ability, body weight, life span of wt mice: no effects on motor ability, body weight, or life span in wt mice
HdhQ7 striatal cells
  total GFP-LC3B protein level: no effect on the total protein level of GFP-LC3B
VCP/mtHtt interaction; 0 to 4 µM, IP/WB quantitated, read-out: IC50 blocking VCP/mtHtt interaction
  IC50: 2110 nM
VCP/mtHtt interaction; 3 µM/day, n = 3
  block of VCP/mtHtt interaction: only HV-3 peptide significantly blocked the VCP/mtHtt interaction
YAC128 mice
  DARPP-32 protein level: significantly increased DARPP-32 levels in the two mouse models
